Data as given in paper PMC5805526, “ZB716, a steroidal selective estrogen receptor degrader (SERD), is orally efficacious in blocking tumor growth in mouse xenograft models” (Oncotarget, 2018).
“And” between values parts separate entries of the source, which are not always exact repeats. Equal entries are not always repeated. “Also recorded” adds a separate entry of the source. Where two headings read alike, the source gives them in different places.

Assays:
ERα = target: T1, ERα (Homo sapiens, UniProt P03372); assay: ER downregulation in MCF-7 cells (Western blot); format: cell-based; conditions: treated for 4 hours, read-out: ERα IC50 (ER downregulation in MCF-7 cells)
T1 construct: MCF-7 cells were plated at a density of 200,000 cells/60mm dish; endogenous in cells; host or cells: MCF-7
T1 sequence (P03372 1-595): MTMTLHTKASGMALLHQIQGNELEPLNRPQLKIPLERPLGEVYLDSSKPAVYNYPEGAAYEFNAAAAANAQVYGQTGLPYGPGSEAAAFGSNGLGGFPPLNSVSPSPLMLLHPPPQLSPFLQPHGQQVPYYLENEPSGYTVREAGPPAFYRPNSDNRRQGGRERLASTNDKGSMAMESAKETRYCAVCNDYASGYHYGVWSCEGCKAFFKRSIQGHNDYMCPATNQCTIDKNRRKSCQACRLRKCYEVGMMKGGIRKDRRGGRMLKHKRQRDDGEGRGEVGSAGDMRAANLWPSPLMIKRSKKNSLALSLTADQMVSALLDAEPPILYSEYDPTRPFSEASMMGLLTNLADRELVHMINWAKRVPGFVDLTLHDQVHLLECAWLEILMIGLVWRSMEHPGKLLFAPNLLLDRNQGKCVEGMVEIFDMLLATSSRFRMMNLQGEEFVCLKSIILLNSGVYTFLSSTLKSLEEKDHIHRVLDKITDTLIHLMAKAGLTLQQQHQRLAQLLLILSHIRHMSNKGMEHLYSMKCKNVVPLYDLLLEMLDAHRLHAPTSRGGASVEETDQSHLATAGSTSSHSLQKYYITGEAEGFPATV
Description: MCF-7 cells were plated at a density of 200,000 cells/60mm dish. Media containing the same drug concentrations as the growth curve assay were added on the day following plating (day 0) and allowed to incubate for 5 days for Western blot. Media with the tested compound was changed every other day. Cells were lysed. Lysates were placed on a rotisserie at 4°C for 30 min and then spun at 4°C at 12,000 rcf for 10 min. Supernatants were assayed for protein content, snap-frozen, and stored at −80°C if not run immediately. 50 μg of protein was subjected to Western blot protocol. Membranes were blocked and then incubated with 1:200 dilution of ERα antibody at 4°C overnight followed by 1:10,000 dilution of secondary antibody for 1 hr at room temperature. They were then imaged on a LICOR infrared scanner.

[1] = Drug concentrations in final plasma and tumor tissue of MCF-7 xenograft mice; format: in vivo; conditions: for concentration at 3 weeks: female, Nu/Nu, mouse, end of study
Description: (§1) The plasma samples of 100 μL each were processed for analysis by a TSQ UPLC-MS/MS system. Aliquots of 10 μL of 0.5 ng/μl E-Tamoxifen-2C^13, N^15, 200 μL methanol, and 400 μl chloroform were added to the plasma in a 1.5 mL centrifuge tube in sequence. The sample was vortexed and stored at −20°C for 4 hours, followed by sonication in a Branson B3510MT Ultrasonic Cleaners for 30 min and centrifuged at 12000 RPM on a Heraeus Fresco 21 Refrigerated Micro Centrifuge from Thermo Fisher Scientific for 10 min. The supernatant was dried with a nitrogen gas flow and suspended in 100 μL methanol. Aliquots of 10 μL of the above processed samples were injected into a TSQ Vantage mass spectrometer connected with a heated electrospray ionization probe and a Dionex Ultimat 3000 UHPLC with a Hypersil gold column (50×2.1 mm). The probe setting and front mass spectrometer setting were controlled as follows: spray voltage 3200 voltage, auxiliary gas 10psi, vaporizer temperature 365°C, capillary temperature 300°C, sheath gas 30psi, S-lens RF amplitude 51 voltage. The flow gradient was started with initial 30% mobile phase A of water with 0.05% formic acid to 1 min, to 100% mobile phase B of acetonitrile with 0.05% formic acid at 8 min, and return to 30% mobile phase A at 13 min.

[2] = Pharmacokinetic study in rats, single oral dose; format: in vivo, Sprague-Dawley rats; conditions: rat; for concentration at 1 h / concentration at 3 h / concentration at 6 h / concentration at 8 h / concentration at 24 h: oral, read-out: Rat plasma concentration of ZB716 after a single oral dose
Description: Female Sprague-Dawley rats, weighing between 350 and 400 g (Charles River Laboratories, Portage, MI) were used for the pharmacokinetic study on ZB716. Rats were given oral gavage containing 5% dimethyl sulfoxide (DMSO), 40% polyethylene glycol 400, 55% saline-dissolved ZB716, at doses ranging from 1 mg/kg to 20 mg/kg. After drug administration, blood samples were collected from the lateral tail vein of the rat at 1, 3, 6, 8, 24 h. Rat blood was collected with a capillary into 1.5 mL microcentrifuge tubes containing 0.01 mL of 10 % EDTA anticoagulant. Plasma was then separated from cell pellets by centrifugation in a refrigerated centrifuge at 4°C and transferred to a separate tube. Plasma samples were frozen at −80°C until analysis.
as §1

[3] = tested on: TM00386 PDX ER+/PR+/HER2- invasive ductal carcinoma; assay: Efficacy in patient derived xenograft (PDX) tumor model; format: in vivo, NOD scid gamma (NSG) mice
Description: Tumor sizes were monitored and recorded every other day for three weeks of treatment duration.

ERα LBD = target: T2, ERα LBD (Homo sapiens, UniProt P03372); assay: MARCoNI ERα-coregulator interaction peptide microarray; format: biochemical; conditions: 10 μM compound, 7 nM GST-tagged ERα LBD, vs apo
T2 construct: using 7 nM GST-tagged ERα LBD (Invitrogen); purchased Invitrogen
T2 sequence (P03372 311-547 limits assumed): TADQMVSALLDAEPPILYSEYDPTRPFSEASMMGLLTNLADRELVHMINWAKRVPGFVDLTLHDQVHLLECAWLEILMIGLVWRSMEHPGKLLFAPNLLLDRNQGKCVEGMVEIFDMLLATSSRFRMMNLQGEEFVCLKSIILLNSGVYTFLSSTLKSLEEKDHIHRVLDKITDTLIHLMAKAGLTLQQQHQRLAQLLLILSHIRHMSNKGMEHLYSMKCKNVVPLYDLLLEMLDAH
Description: The modulation of ERα-coregulator interaction by compound was analyzed using MARCoNI (Micro Array Assay for Real-time Coregulator Nuclear receptor Interaction) as described previously using 7 nM GST-tagged ERα LBD (Invitrogen).
Each condition is measured using 3 technical replicates (arrays). After incubation, unbound receptor is removed by washing, and a tiff image of each array is acquired using a CCD camera and receptor binding to each peptide on the array is quantified using dedicated software. For each condition, the three technical replicates are used to calculate mean and S.E.M. ERα binding as well as compound-induced log-fold modulation vs. control for each individual motif. Significance of the modulation is assessed using Student's t-Test.

[4] = tested on: MCF-7 human breast cancer xenograft; assay: Efficacy in MCF-7 xenograft tumor model; format: in vivo, Nu/Nu mice; conditions: ZB716 at both 10 mg/kg and 30 mg/kg by oral gavage, three weeks
Description: Four to six weeks old female ovariectomized Nu/Nu mice were purchased from Charles River Laboratories (Wilmington, MA). MCF-7 cells were cultured and harvested in the exponential growth phase using a PBS/EDTA solution. The animals were injected bilaterally in the mammary fat pad (MFP) with 5×10^6 viable cells suspended in 50 μL sterile PBS mixed with 100 μL Matrigel (reduced factor; BD Biosciences, Bed- ford, MA). 17b-Estradiol pellets (0.72 mg, 60 day release; Innovative Research of America, Sarasota, FL) were implanted subcutaneously in the lateral area of the neck using a precision trochar (10 gages) at the time of cell injection. Tumors were allowed to form and at day 15 post cell injection mice. […] Tumor sizes were monitored and recorded every other day for three weeks of treatment duration.

[5] = female, Sprague-Dawley, plasma, 1 mg/kg
[6] = female, Sprague-Dawley, plasma, 5 mg/kg
[7] = female, Sprague-Dawley, plasma, 10 mg/kg
[8] = female, Sprague-Dawley, plasma, 20 mg/kg

C[C@]12CC[C@@H]3c4ccc(B(O)O)cc4C[C@@H](CCCCCCCCC[S+]([O-])CCCC(F)(F)C(F)(F)F)[C@H]3[C@@H]1CC[C@@H]2O (stereo partly drawn) [ZB716]
DC50 (ERα): 0.8 nM | drug accumulation in tumor tissue relative to fulvestrant treated mice ([1]; ZB716 10 mg/kg dose group): 4 fold | final plasma concentration relative to fulvestrant treatment group ([1]; ZB716 10 mg/kg dose group): over 6 fold | drug concentration in tumor tissue relative to fulvestrant treated mice ([1]; ZB716 30 mg/kg dose group): 10 fold | final plasma concentration relative to fulvestrant treatment group ([1]; ZB716 30 mg/kg dose group): > 20 fold | concentration at 3 weeks ([1]; plasma, treatment ZB716 10 mg/kg daily PO, read-out: Average concentration in final plasma): 182 ng/mL | concentration at 3 weeks ([1]; plasma, treatment ZB716 30 mg/kg daily PO, read-out: Average concentration in final plasma): 692 ng/mL | concentration at 3 weeks ([1]; tumor tissue, treatment ZB716 10 mg/kg daily PO, read-out: Average concentration in tumor tissue): 506 ng/mL | concentration at 3 weeks ([1]; tumor tissue, treatment ZB716 30 mg/kg daily PO, read-out: Average concentration in tumor tissue): 1540 ng/mL | concentration at 1 h [2, 5]: 14.8 ± 6.51 ng/mL | concentration at 3 h [2, 5]: 9.23 ± 2.33 ng/mL | concentration at 6 h [2, 5]: 4.7 ± 1.66 ng/mL | concentration at 8 h [2, 5]: 4.42 ± 2.38 ng/mL | concentration at 24 h [2, 5]: 1.36 ± 1.42 ng/mL | concentration at 1 h [2, 6]: 46.5 ± 4.81 ng/mL | concentration at 3 h [2, 6]: 23.4 ± 2.8 ng/mL | concentration at 6 h [2, 6]: 15.9 ± 2.03 ng/mL | concentration at 8 h [2, 6]: 11.4 ± 0.52 ng/mL | concentration at 24 h [2, 6]: 9.37 ± 1.24 ng/mL | concentration at 1 h [2, 7]: 218 ± 27.8 ng/mL | concentration at 3 h [2, 7]: 93.6 ± 21.8 ng/mL | concentration at 6 h [2, 7]: 62 ± 14.9 ng/mL | concentration at 8 h [2, 7]: 60.7 ± 13.9 ng/mL | concentration at 24 h [2, 7]: 33.1 ± 10.6 ng/mL | concentration at 1 h [2, 8]: 1040 ± 153 ng/mL | concentration at 3 h [2, 8]: 671 ± 125 ng/mL | concentration at 6 h [2, 8]: 371 ± 111 ng/mL | concentration at 8 h [2, 8]: 300 ± 118 ng/mL | concentration at 24 h [2, 8]: 98.5 ± 36.1 ng/mL | Tmax ([2]; female, Sprague-Dawley, plasma, all four oral doses (1, 5, 10, 20 mg/kg), read-out: time of peak concentration in rat plasma): 1 h | peak plasma concentration ([2]; 20 mg/kg oral, 20 mg/kg): over 1000 ng/mL and > 1.6 μM | PDX tumor growth ([3]; ZB716 5 mg/kg PO daily): as effectively as fulvestrant treatment | PDX tumor growth inhibition ([3]; ZB716 20 mg/kg PO daily): greatest effect on tumor growth inhibition | PDX tumor growth ([3]; ZB716 at both doses (5 and 20 mg/kg PO daily)): effective in blocking tumor growth; also recorded: regression of tumor comparable to the fulvestrant group | modulation of ERα interaction with coactivator motifs (NCOA family) (ERα LBD): strongly reduced | tumor growth in MCF-7 xenograft [4]: complete blockage of tumor growth
